The results in this text go back to US12414951B2, “Use of compound in preparation of medicament for prophylaxis and treatment of inflammatory tissue damage” (Sichuan University, priority 2022, dated 2025).

Experiment [1] deals with inflammatory factors in irradiated skin tissue. The experiment is described as follows: inflammation microarray of irradiated skin tissue of treated mice. The settings on record: s.c. treatment, FIG. 10. The experiment is classed as in vivo, mouse. Here is the method: (§1) Male C57 BL/6J mice aged 6-8 weeks were purchased from GemPharmatech Co., Ltd. The mice were acclimatized and randomized into two groups (6 mice per group); the mice were subcutaneously injected with IRSKIN-1 (which was dissolved in DMSO to prepare a 50 mM solution, 100 μL/time) and equivalent DMSO once 1 and 3 days before irradiation, respectively; based on 1% of the body weight of each mouse, the mouse was anesthetized by intraperitoneal injection of 1% chloral hydrate, the skin of hind limbs of the mouse was depilated, and the mouse was immobilized on a board to reduce accidental movements during irradiation.
(§2) The skin of limbs of mice was irradiated with 6 MeV electron ray generated by Varian 23EX Linear Accelerator (Varian, the USA); the surface was covered with a 1 cm thick bolus, and non-irradiated sites were shielded with a lead plate; the irradiation area was approximately 30×40 mm, the absorbed dose rate was 750 cGy/min, and the total dose was 45 Gy; and the range of the irradiated area was outlined with a marker pen during irradiation.

Experiment [2] deals with Caspase1, GSDMD and IL1 in irradiated skin cells. Description: Western blot of pyroptosis pathway proteins in irradiated skin cells. Conditions: 10 μM for 24 h before irradiation, 20 Gy X-ray once. Type of experiment: cell-based. The method, then: To determine the mechanism of the inhibitory effect of IRF1 inhibitor IRSKIN-1 on inflammatory death in the irradiated skin cells, cells were treated with 10 μM IRSKIN-1 or equivalent DMSO for 24 h before irradiation, respectively; subsequently, the cells were irradiated with 20 Gy X-ray once, and changes in key proteins of cell pyroptosis pathway, Caspase1 and GSDMD, and inflammatory factor IL1 were detected by Western blot, so as to determine the inhibitory effect of IRSKIN-1 on inflammatory death in the irradiated skin cells and its mechanism.
(In general: A western blot detects proteins with antibodies after separation by electrophoresis.)

The subject of experiment [3] is irradiated skin cells. Description: colony formation test of irradiated skin cells. Conditions: 10 μM for 24 h before irradiation; X-ray 2 Gy once or twice or Sr 90 4 Gy once; vs DMSO, P<0.01. Type of experiment: cell-based. Here is the method: To determine the promoting effect of IRF1 inhibitor IRSKIN-1 on irradiated skin cell proliferation, cells were treated with 10 μM IRSKIN-1 or equivalent DMSO for 24 h before irradiation, respectively; subsequently, the cells were subjected to fractionated irradiation at 2 Gy once or at 2 Gy twice or Sr 90 irradiation at 4 Gy once, respectively; subsequently, the effect of IRSKIN-1 on irradiated cell proliferation ability was evaluated by the colony formation test (2,500 cells were spread on each well of a 6-well plate).

A further experiment has as its target T1, IRF1 (Homo sapiens, UniProt P10914).
T1 construct: Human skin keratinocytes (HaCaT cells) were infected in vitro according to a titer of 100 MOI; endogenous in cells; host or cells: HaCaT human skin keratinocytes infected with an h-IRF1 promoter-rluc reporter adenovirus
T1 sequence (P10914 1-325): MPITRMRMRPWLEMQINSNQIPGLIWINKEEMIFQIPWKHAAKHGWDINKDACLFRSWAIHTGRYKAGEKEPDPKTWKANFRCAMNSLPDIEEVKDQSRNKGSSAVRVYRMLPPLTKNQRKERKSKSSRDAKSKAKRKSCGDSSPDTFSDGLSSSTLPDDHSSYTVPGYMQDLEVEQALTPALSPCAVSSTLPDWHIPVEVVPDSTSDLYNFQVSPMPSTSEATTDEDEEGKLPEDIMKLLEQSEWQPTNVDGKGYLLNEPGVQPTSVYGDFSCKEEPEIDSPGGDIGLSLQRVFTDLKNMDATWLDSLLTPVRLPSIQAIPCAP
Description: IRF1 transcriptional activity, dual-luciferase reporter system in irradiated HaCaT cells. Type of experiment: cell-based. Conditions: 10 μM 24 h before irradiation, X-ray 20 Gy, detection 1 h after irradiation, P<0.01. The source says: To determine the inhibitory effect of the compound (IRSKIN-1) on the transcriptional activity of IRF1, Hanbio Biotechnology (Shanghai) Co., Ltd. was entrusted to construct an h-IRF1 promoter-rluc adenovirus vector. The vector has four binding sites of IRF1, and the downstream of the promoter is a luciferase reporter gene. The virus was constructed based on a dual-luciferase reporter system, and the transcriptional activity of IRF1 could be directly reflected by the luciferase activity. Human skin keratinocytes (HaCaT cells) were infected in vitro according to a titer of 100 MOI, and the virus infection efficiency met the experimental requirement 48 h after infection.
A microplate reader PROMEGA and the corresponding substrates were used for detection 1 h after irradiation.
A general note: In a reporter assay the amount or activity of a reporter protein is the signal.

Experiment [4] has as its system irradiated skin cells. Description: mortality of irradiated skin cells by AV/PI staining. Type of experiment: cell-based. The settings on record: 10 μM for 24 h before irradiation; 20 Gy X-ray once; 3 days after irradiation; vs DMSO, P<0.01. The method, then:
To determine whether IRSKIN-1 reduces the mortality of irradiated skin cells, cells were treated with 10 μM IRSKIN-1 or equivalent DMSO for 24 h before irradiation, respectively; subsequently, the cells were irradiated with 20 Gy X-ray once, and the effect of IRSKIN-1 on irradiated cell proliferation ability was evaluated by AV/PI staining method 3 days after irradiation.

In experiment [5] the test system is radiation-induced skin injury in C57 BL/6J mice. Description: radiation-induced skin injury mouse model, subcutaneous injection. Type of experiment: in vivo. Conditions: 1 and 3 days before irradiation. The method, then:
as §1, §2

In a further experiment the test system is mouse primary skin cells. The experiment is described as follows: senescence of irradiated primary skin cells by β-galactosidase staining. Type of experiment: cell-based. Conditions: 10 μM for 24 h before irradiation; 20 Gy X-ray once; 3 days after irradiation; vs DMSO, P<0.01. Here is the method:
To determine whether IRSKIN-1 reduces the senescence rate of irradiated skin cells, mouse primary skin cell were isolated and cultured, cells were treated with 10 μM IRSKIN-1 or equivalent DMSO for 24 h before irradiation, respectively; subsequently, the cells were irradiated with 20 Gy X-ray once, and the effect of IRSKIN-1 on irradiated primary cell senescence was evaluated by β-galactosidase staining method 3 days after irradiation.

Setting [6] is: s.c. 50 mM in DMSO 100 μL/time, 45 Gy electron ray.

`O=C(CCn1cnc2ccccc2c1=O)Nc1ccc(S(=O)(=O)N2CCCCC2)cc1` [IRSKIN-1, 3-(4-oxo-3 (4H)-quinazolinyl)-N-[4-(1-piperidinylsulfonyl)phenyl]propanamide]: in experiment [1], the “expression of BLC in skin tissue” value was “downregulated”, the “expression of G-CSF in skin tissue” value was “upregulated”, the “expression of MIP-1a in skin tissue” value is listed as “upregulated” and the “expression of TNF-R II in skin tissue” value is listed as “upregulated”. Moreover, in experiment [2], the “hydrolysis of Caspase1” value is reported as “inhibit the hydrolysis”, the “hydrolysis of GSDMD” value is on record as “inhibit the hydrolysis” and the “hydrolysis of IL1” value is “inhibit the hydrolysis”. Further, in the experiment on irradiated skin cells [3], the “clone formation ability of irradiated skin cells” value is given as “significantly improve”. For the same compound, at IRF1, the “irradiated IRF1 transcriptional activity (luciferase activity) vs DMSO-treated irradiation group” value is “significantly lower”. Also, in the experiment on irradiated skin cells [4], the “cell mortality after X-ray irradiation (AV/PI staining)” value is recorded as “reduce cell mortality”. In addition, the “wet ulcers of the skin” value in experiment [5] (s.c. 50 mM 100 μL/time, 45 Gy, FIG. 8, 15 and 30 days after irradiation) is “wet ulcers appeared in only fewer areas”. In addition, the “progression scores of radiation-induced skin injury” value in experiment [5] (s.c. 50 mM 100 μL/time, 45 Gy, FIG. 9) is “reducing progression scores”. Besides, in experiment [5] (setting [6]), the “progression of radiation-induced skin injury vs DMSO group” value is recorded as “slower” and the “ulcer wound area vs DMSO group” value was “smaller ulcer wound area”. The “β-galactosidase positive rate (senescence) of mouse primary cells” value in the experiment with mouse primary skin cells is “reduce the β-galactosidase positive rate”.
